Laboratory results: the METLIN SMRT retention time set (Domingo-Almenara et al. 2019)

Assay: gradient 5% acetonitrile 3 min, to 50% in 2 min, to 85% in 15 min, held 3 min, 100 µL/min
Conditions: column: Zorbax Extend-C18 2.1 x 50 mm; eluents: water / acetonitrile, 0.1% formic acid
Summary of the method: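 Pure standards were run in mixtures of ~100 molecules by HPLC coupled to a quadrupole time-of-flight mass spectrometer. The column was a Zorbax Extend-C18 (2.1 × 50 mm, 1.8 μm) at 100 μL/min, with water and acetonitrile each containing 0.1% formic acid, in positive and negative ionization mode. Dead and dwell volumes were 40 μL and 900 μL. Retention time was taken from computationally picked adduct peaks, each manually inspected, with data collected over 3 months.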

Row | SMILES | RP-LC retention time
1 | O=C(NCc1ccc(F)c(Cl)c1)C1CCCN(c2nccnc2Sc2ccccc2)C1 (stereo unspecified) | 1100 s
2 | CCOc1cccc(CNC(=O)c2cn3c(n2)CCCC3)c1 | 602 s
3 | CCn1cnc2c(-c3ccccc3)cn(CC(=O)NCc3ccco3)c2c1=O | 796 s
4 | O=C(O)c1cncc(Br)c1 | 701 s
5 | CCOc1ccc(OCC)c(S(=O)(=O)N2CCN(c3nc(C)cc(N(C)C)n3)CC2)c1 | 733 s
6 | COc1ccc(NC(=O)c2cnc(N3CCN(c4ccccc4OC)CC3)nc2N)cc1 | 737 s
7 | O=C(CCn1ccc2cc(S(=O)(=O)N3CCCCCC3)ccc21)N1CCN(c2ccccn2)CC1 | 710 s
8 | COC(=O)c1c(NC(=O)N2CCCN(c3nc4cccnc4s3)CC2)sc2c1CCCC2 | 1100 s
9 | O=C(C1CCN(S(=O)(=O)N2CCOCC2)CC1)N1CCN(Cc2noc3ccccc23)CC1 | 645 s
10 | Cc1cccc2c(C(=O)NC3CC3)cc(N3CCCC3)nc12 | 593 s
11 | CC1SC(C)C(=O)N(CC(=O)Nc2ccc3c(c2)OCCO3)C1=O (stereo unspecified) | 735 s
12 | CCN(CC)S(=O)(=O)c1ccc(C)c(-c2nnc(-c3ccc(F)cc3)o2)c1 | 1100 s
13 | COc1ccccc1C1CC(=O)Nc2c(S(=O)(=O)c3ccccc3)csc21 (stereo unspecified) | 946 s
14 | COc1ccc(-c2noc(C3CCCN3C(=O)c3ccc(C)s3)n2)cc1 (stereo unspecified) | 996 s
15 | COC(=O)CNC(=O)C1COc2ccc(NC(=O)c3ccc(Br)cc3)cc2C1 (stereo unspecified) | 794 s
16 | CCOC(=O)c1ccc(NC(=O)C2CCCN(c3nnc4c(Cl)cccn34)C2)cc1 (stereo unspecified) | 802 s
17 | CC(Oc1ccc(Cl)cc1)C(=O)N1CCCN(c2cc(-c3ccc(Br)cc3)[nH]n2)CC1 (stereo unspecified) | 892 s
18 | Cc1c(C2CCN(C(=O)c3cc4ccccc4[nH]3)CC2)noc1N | 729 s
19 | O=C(NCC(=O)N1CCN(c2ccccn2)CC1)c1ccc(OC(F)(F)F)cc1 | 635 s
20 | Cc1nnc(N2CCCC(C(=O)NCCc3cccs3)C2)c2nn(-c3ccccc3)c(C)c12 (stereo unspecified) | 720 s
21 | CCCN1C(=O)COc2ccc(-c3noc(-c4cccc(Cl)c4)n3)cc21 | 1350 s
22 | COc1cc(Br)c(C2C(C(=O)N3CCOCC3)=C(C)NC3=C2C(=O)CCC3)cc1OC (stereo unspecified) | 618 s

Row | SMILES | RP-LC retention time
23 | COc1cccc(N2CCN(C3=Nc4c(F)cccc4[C@H](CC(=O)O)N3c3cc(C(F)(F)F)ccc3OC)CC2)c1 | 899 s
24 | CCn1c(C(=O)NCc2ccccc2OC)cc2sccc21 | 1010 s
25 | CC(C)n1cnc(S(=O)(=O)N2CCC(C(=O)NCc3ccc(N(C)C)cc3)CC2)c1 | 589 s
26 | O=C(Nc1ccc(N2CCCCS2(=O)=O)cc1)OCc1ccccc1 | 769 s
27 | COc1cccc(NC(=O)NCCn2c(C(F)(F)F)nc3cccnc32)c1 | 698 s
28 | COC(=O)c1ccc(NC(=O)C2CCCN(S(=O)(=O)c3cc(-c4noc(C)n4)cs3)C2)cc1 (stereo unspecified) | 984 s
29 | COC(=O)Cn1c(=O)c2c(nc3n2CCCN3c2ccccc2)n(C)c1=O | 761 s
30 | Cc1cc(C(=O)N2CCC(c3noc(N)c3C(C)C)CC2)c(C)o1 | 759 s
31 | CC(=O)Oc1ccc2ccc(=O)oc2c1OC(C)=O | 856 s
32 | COc1ccc(-c2noc(-c3nnn(Cc4nc(-c5ccccc5OC)oc4C)c3C)n2)cc1OC | 1000 s
33 | CC(C)n1c(=O)c(Nc2cccc(Cl)c2)nc2ccncc21 | 649 s
34 | CCc1nc(-c2csc(S(=O)(=O)N3CCCC(C(=O)NCc4ccccc4)C3)c2)no1 (stereo unspecified) | 960 s
35 | Cc1ccccc1NC(=O)N1CCCC1c1nc(-c2cccc(Cl)c2)no1 (stereo unspecified) | 1050 s
36 | CCCn1c(C2CCN(C(=O)Nc3ccc(C)cc3)CC2)cc(=O)n2nccc12 | 653 s
37 | Cc1ccc(N2CCCS2(=O)=O)cc1NS(=O)(=O)CCc1ccccc1 | 784 s
38 | CCCNC(=O)COc1ccc(NC(=O)C2CC2)cn1 | 643 s
39 | Cc1cccc(NC(=O)N2CCCC2c2cc(C(C)C)on2)c1 (stereo unspecified) | 967 s
40 | CCOC(=O)Cn1c(=O)c2cnc(-c3ccc(Cl)cc3)nc2n(C)c1=O | 1130 s
41 | CCOc1cc(CNC(=O)C2CCCN(C(=O)c3cc(C)cc(C)c3)C2)cc(OCC)c1OCC (stereo unspecified) | 968 s
42 | CC1CCN(C(=O)CN2C(=O)CCCc3cc(S(=O)(=O)N4CCCCCC4)ccc32)CC1 | 956 s
43 | O=C1CC(c2ccc(F)cc2)Cc2c1cnn2-c1nc2ccccc2[nH]1 (stereo unspecified) | 891 s
44 | CC(C(=O)NCCCN1CCCCC1)n1c2ccccc2c2cnn(C)c(=O)c21 (stereo unspecified) | 618 s

Row | SMILES | RP-LC retention time
45 | c1ccc(CCc2nc(-c3ccc4c(c3)nnn4CCN3CCOCC3)no2)cc1 | 687 s
46 | COCCNC(=O)N1CCCN(C2=NS(=O)(=O)C(c3ccc(C)cc3)=C2C)CC1 | 688 s
47 | CCn1nc(C)c(CCNC(=O)c2ccc(-c3ccc4c(c3)CCN4C(C)=O)cc2)c1C | 676 s
48 | CCCc1noc(-c2ccc3nnc(CC(=O)N4CCSCC4)n3c2)n1 | 755 s
49 | COc1ccc(C(C)NC(=O)Cc2c[nH]c3ncccc23)cc1 (stereo unspecified) | 614 s
50 | Nc1ccc(SCC(=O)Nc2nc(-c3ccccc3)cs2)cc1 | 817 s
51 | Cc1noc(C)c1CC(=O)N1CCCCCCNC(=O)[C@@H]2CCCC[C@@H]21 | 739 s
52 | O=C(NCCC1=CCCCC1)C1CCN(c2cnc(N3CCCCC3)nc2)CC1 | 872 s
53 | Cc1ccccc1-n1c(=O)c2sccc2n(Cc2nc(-c3ccc(C(F)(F)F)cc3)no2)c1=O | 1120 s
54 | COCCN1C(=O)CCc2cc(NC(=O)Cc3ccccc3C)ccc21 | 766 s
55 | CCSc1nc2ccc(NS(=O)(=O)c3ccc4c(c3)CCC4)cc2s1 | 1110 s
56 | CCCn1cc(S(=O)(=O)NCc2ccccc2C)c2cccnc21 | 946 s
57 | Cc1nnc(NC(=O)CN2CCc3nc(NC(=O)c4cnccn4)sc3C2)s1 | 546 s
58 | O=C1CC(c2nc(-c3cccnc3)no2)CN1c1ccc2c(c1)OCO2 (stereo unspecified) | 728 s
59 | O=C(NCc1ccccc1)C1CC(=O)N(c2ccc3c(c2)CCN3C(=O)C2CCC2)C1 (stereo unspecified) | 769 s
60 | O=C(Cc1ccsc1)NCc1cccnc1Oc1ccccc1 | 704 s
61 | CCCN1C(=O)COc2ccc(-c3noc(C(C)NC(=O)c4ccccc4)n3)cc21 (stereo unspecified) | 900 s
62 | CCCNC(=O)C1CCN(c2ccc(SCC(=O)NCc3ccccc3)nn2)CC1 | 645 s
63 | CC(=O)c1ccc(NS(=O)(=O)c2ccc3ccccc3c2)cc1 | 822 s
64 | COc1ccc(N2CCN(c3cc(C)nc4nc(-c5ccc(C)cc5)nn34)CC2)cc1 | 1010 s
65 | CCn1cnc2ccc(C(=O)NC3CC3)cc2c1=O | 714 s
66 | CCn1cc(-c2nc(-c3cc(OC)cc(OC)c3)no2)c(=O)c2cc(F)c(N3CCOCC3)cc21 | 957 s
